Read-outs that look alike come from different tables or passages of the source. Where a SMILES comes first, the peptide text is derived from it. [ ]: non-standard residue; d: D form. The star is where a group is joined. DOTA = O=C(O)CN1CCN(CC(=O)O)CCN(CC(=O)*)CCN(CC(=O)O)CC1; 1Nal = N[C@@H](Cc1cccc2ccccc12)C(=O)O; NMeNle = CCCC[C@H](NC)C(=O)O
Legend:
human CCK2R = biological target: T1, human CCK2R (Homo sapiens, UniProt P32239); assay: CCK2R competition binding assay against [125I]Tyr12-gastrin-I on A431-CCK2R cells
T1 construct: expressed in transfected cells; host or cells: A431 human epidermoid carcinoma cells (A431-CCK2R), plasmid pCR3.1, provided by Dr. Luigi Aloj
T1 sequence (P32239 1-447): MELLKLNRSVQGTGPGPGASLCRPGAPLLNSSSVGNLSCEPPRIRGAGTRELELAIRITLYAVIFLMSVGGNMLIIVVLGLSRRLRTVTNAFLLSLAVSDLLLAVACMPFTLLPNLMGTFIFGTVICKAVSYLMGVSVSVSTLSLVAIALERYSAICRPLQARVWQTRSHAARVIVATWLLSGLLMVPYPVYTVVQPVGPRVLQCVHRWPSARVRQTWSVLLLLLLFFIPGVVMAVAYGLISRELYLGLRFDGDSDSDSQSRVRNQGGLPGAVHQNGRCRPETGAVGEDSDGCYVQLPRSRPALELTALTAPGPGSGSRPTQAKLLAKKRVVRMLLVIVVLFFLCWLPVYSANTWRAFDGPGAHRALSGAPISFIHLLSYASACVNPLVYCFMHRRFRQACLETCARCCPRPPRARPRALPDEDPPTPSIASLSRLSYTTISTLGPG
Procedure: Affinity for CCK2R was studied in A431 human epidermoid carcinoma cells stably transfected with the plasmid pCR3.1 containing the full coding sequence for the human CCK2R (A431-CCK2R) kindly provided by Dr. Luigi Aloj (Aloj L et al., J Nucl Med 2004, 45: 485-494). […] Radioiodination of gastrin-1 was carried out using the chloramine-T method. Non-carrier-added [^125I-Tyr^12]gastrind was obtained by HPLC purification and stored in aliquots at −20° C. Binding assays were carried out in 96-well filter plates (MultiScreenHTS-FB, Merck Group, Darmstadt, Germany) pretreated with 10 mM TRIS/139 mM NaCl pH 7.4 (2×250 μl). For the assay a number of 200,000-400,000 A431-CCK2R cells per well was prepared in 35 mM HEPES buffer pH 7.4 containing 10 mM MgCl2, 14 μM bacitracin and 0.5% BSA (a hypotonic solution disturbing the integrity of the cell membranes). The cells were incubated in triplicates with increasing concentrations of the peptidomimetics (0.0003 to 10,000 nM, for example 0.001 to 1000 nM) and [^125I-Tyr^12]gastrin-I (20,000-60,000 cpm) for 1 h at RT. Incubation was interrupted by filtration of the medium and rapid rinsing with ice-cold 10 mM TRIS/139 mM NaCl pH 7.4 (2×200 μl) and the filters were counted in the gamma-counter. Half maximal inhibitory concentration (IC50) values were calculated following nonlinear regression with Origin software (Microcal Origin 6.1, Northampton, MA) and a representative assay was chosen for comparison.

[1] = cited from earlier work
[2] = biodistribution: uptake in normal tissues; assay type: in vivo, athymic BALB/c nude mice; settings: female, athymic BALB/c nude, mouse, iv, total radioactivity
Procedure: Biodistribution studies evaluating the tumour uptake of the radiolabelled inventive CCK2R targeting peptide analogues were performed in 7-week-old female athymic BALB/c nude mice (Charles River, Sulzfeld, Germany). All animal experiments were conducted in compliance with the Austrian animal protection laws and with the approval of the Austrian Ministry of Science. For the induction of tumour xenografts, A431-CCK2R and A431-mock cells were injected subcutaneously in the right and left flank respectively (2 million cells in 200 μl). When tumours had reached a size of approximately 0.2 ml biodistribution studies were carried out. Groups of 4 mice were injected intravenously via a lateral tail vein with the peptidomimetics of the present invention, labelled with ^111In (approximately 0.2 MBq and 0.02 nmol peptidomimetic), with ^68Ga (approximately 0.8 MBq and 0.02-0.03 nmol peptidomimetic), with ^177Lu (approximately 0.5 MBq and 0.02 nmol peptidomimetic) or with ^99mTc (approximately 0.3 MBq and 0.02 nmol peptidomimetic). After a time period of 1 or 4 h post-injection (p.i.) the animals were sacrificed by cervical dislocation, tumours and other tissues (blood, lung, heart, muscle, bone, spleen, intestine, liver, kidneys, stomach, pancreas) were removed, weighed, and their radioactivity measured in the gamma counter. Results were expressed as percentage of injected activity per gram tissue (% IA/g) and tumour to organ activity ratios were calculated from the activity measured in the dissected tissues. In FIG. 4 the results of the biodistribution studies at 4 h p.i. are summarized for the ^111In-labelled peptidomimetics of the present invention in comparison with ^111In-DOTA-MGS1 and ^111In-DOTA-MGS4 (Klingler M et al., Eur J Nucl Med Mol Imaging 2017, 44: S228). In FIG. 5 the results for the model peptidomimetics of the present invention, DOTA-MGS5 and HYNIC-MGS5, radiolabelled with different radiometals are shown for different time points of 1 or 4 h p.i. […] The uptake in A431-mock tumour xenografts with values <1% IA/g was very low confirming the high receptor-specific tumour uptake. […] A combination of high stability and increased protein binding in vivo seems therefore to result in an optimal protection of the radioligand against enzymatic degradation in blood allowing reaching an extremely high tumour uptake.

serum proteins = assay: protein binding to serum proteins (Sephadex G-50 size-exclusion chromatography); assay type: in vitro ADME; settings: 37° C.
Procedure: Additionally, protein binding to serum proteins was investigated. For this purpose the ^111In-labelled peptidomimetics were incubated in duplicates in fresh human serum at 37° C. (500 pmol/mL) and analyzed after 4 and 24 h by Sephadex G-50 size-exclusion chromatography (GE Healthcare Illustra, Little Chalfont, UK). The percentage of protein binding was determined by measuring the column and the eluate in a 2480 Wizard 2 automatic gamma-counter (Perkin Elmer Life Sciences and Analytical Sciences, Turku, F).

[3] = in vivo, Nock et al. 2014; cited from earlier work
[4] = displacement of [125I]Tyr12-gastrin-I, A431-CCK2R cells, 1 h at RT, read-out: IC50

In the case of `CSCC[C@H](NC(=O)[C@H](Cc1c[nH]c2ccccc12)NC(=O)CNC(=O)[C@H](Cc1ccc(O)cc1)NC(=O)[C@H](C)NC(=O)[C@@H](CCC(=O)O)NC(=O)CN1CCN(CC(=O)O)CCN(CC(=O)O)CCN(CC(=O)O)CC1)C(=O)N[C@@H](CC(=O)O)C(=O)N[C@@H](Cc1ccccc1)C(N)=O` [DOTA-MG11, [1,4,7,10-tetraazacyclodocecan-1,4,7,10-tetraacetic acid^0,D-Glu^1,DesGlu^2-6]minigastrin, reference compound] ({DOTA}-[dE]AYGWMDF-NH2), the IC50 (human CCK2R; [4]) is given as 0.9 ± 0.5 nM and the “biological half-life in vivo” value [1] is given as “below five”.
Molecule `CCCC[C@@H](C(=O)N[C@@H](CC(=O)O)C(=O)N[C@@H](Cc1cccc2ccccc12)C(N)=O)N(C)C(=O)[C@H](Cc1c[nH]c2ccccc12)NC(=O)CNC(=O)[C@H](Cc1ccc(O)cc1)NC(=O)[C@H](C)NC(=O)[C@@H](CCC(=O)O)NC(=O)CN1CCN(CC(=O)O)CCN(CC(=O)O)CCN(CC(=O)O)CC1` [DOTA-MGS5, DOTA-DGlu-Ala-Tyr-Gly-Trp-(N-Me)Nle-Asp-1Nal-NH2] has a tissue uptake ([2]; kidneys, 1 or 4 h p.i. (111In-labelled series: 4 h p.i.), read-out: kidney uptake) of 4 to 6 %ID/g, a tissue uptake ([2]; pancreas, CCK2R expressing organ, 1 or 4 h p.i., read-out: uptake in pancreas) of 2 to 3 %ID/g and a tissue uptake ([2]; stomach, CCK2R expressing organ, 1 or 4 h p.i., read-out: uptake in stomach) of 5 to 8 %ID/g. For the same molecule, the IC50 (human CCK2R; [4]) was 0.4 ± 0.2 nM.
With `CCCC[C@@H](C(=O)N[C@@H](CC(=O)O)C(=O)N[C@@H](Cc1cccc2ccccc12)C(N)=O)N(C)C(=O)[C@H](Cc1c[nH]c2ccccc12)NC(=O)CNC(=O)[C@H](Cc1ccc(O)cc1)NC(=O)[C@@H]1CCCN1C(=O)[C@@H](CCC(=O)O)NC(=O)CN1CCN(CC(=O)O)CCN(CC(=O)O)CCN(CC(=O)O)CC1` [DOTA-MGS8, DOTA-DGlu-Pro-Tyr-Gly-Trp-(N-Me)Nle-Asp-1Nal-NH2] ({DOTA}-[dE]PYGW[NMeNle]D[1Nal]-NH2) the IC50 (human CCK2R; [4]) was 1.6 ± 0.2 nM.
Work on `CCCC[C@@H](C(=O)N[C@@H](CC(=O)O)C(=O)N[C@@H](Cc1cccc2ccccc12)C(N)=O)N(C)C(=O)[C@H](Cc1c[nH]c2ccccc12)NC(=O)CNC(=O)[C@@H]1CCCN1C(=O)[C@H](Cc1ccc(O)cc1)NC(=O)[C@@H](CCC(=O)O)NC(=O)CN1CCN(CC(=O)O)CCN(CC(=O)O)CCN(CC(=O)O)CC1` [DOTA-MGS10, DOTA-DGlu-Tyr-Pro-Gly-Trp-(N-Me)Nle-Asp-1Nal-NH2] ({DOTA}-[dE]YPGW[NMeNle]D[1Nal]-NH2) yielded an IC50 (human CCK2R; [4]) of 0.9 ± 0.2 nM.
In the case of `CSCC[C@H](NC(=O)[C@H](Cc1c[nH]c2ccccc12)NC(=O)CNC(=O)[C@H](Cc1ccc(O)cc1)NC(=O)[C@H](C)NC(=O)[C@@H](CCC(=O)O)NC(=O)[C@@H](CCC(=O)O)NC(=O)[C@@H](CCC(=O)O)NC(=O)[C@@H](CCC(=O)O)NC(=O)[C@@H](CCC(=O)O)NC(=O)[C@@H](CCC(=O)O)NC(=O)CN1CCN(CC(=O)O)CCN(CC(=O)O)CCN(CC(=O)O)CC1)C(=O)N[C@@H](CC(=O)O)C(=O)N[C@@H](Cc1ccccc1)C(N)=O` [PP-F11, reference compound], the IC50 (human CCK2R) is reported as 0.4 ± 0.1 nM.
For `CSCC[C@H](NC(=O)[C@H](Cc1c[nH]c2ccccc12)NC(=O)CNC(=O)[C@H](Cc1ccc(O)cc1)NC(=O)[C@H](C)NC(=O)[C@@H](CCC(=O)O)NC(=O)CN1CCN(CC(=O)O)CCN(CC(=O)O)CCN(CC(=O)O)CC1)C(=O)N[C@@H](CC(=O)O)C(=O)N[C@@H](Cc1ccccc1)C(N)=O` [^111In-DOTA-MG11, metal not drawn, reference compound] ({DOTA}-[dE]AYGWMDF-NH2), the fraction unbound at 4 h, 500 pmol/mL (serum proteins; fresh human serum, 4 h, read-out: Percentage of radioligand bound to serum proteins after 4 h incubation (converted)) was 0.899, the fraction unbound at 24 h, 500 pmol/mL (serum proteins; fresh human serum, 24 h, read-out: Percentage of radioligand bound to serum proteins after 24 h incubation (converted)) was 0.938 and the “Percentage of radioligand bound to serum proteins after 24 h incubation” value (serum proteins; human serum, 24 h) was < 10%. For the same molecule, the “intact radiopeptide 5 min after injection” value [3] was 5%.

— patent publication US12049518B2, “Pharmacokinetics and cholecystokinin-2 receptor (CCK2R) targeting for diagnosis and therapy” (Medizinische Universitat Innsbruck, priority 2017, dated 2024)
